Data: patent US20260258378A1, “GLYCOSYLTRANSFERASE ENGINEERING FOR CHEMOENZYMATIC TOTAL SYNTHESIS OF GANGLIOSIDES” (priority 2022, published 2026)

What was measured:
Assay type in all cases: biochemical, Campylobacter jejuni
MBP-Δ15CjCgtA-His6 [1] = assay: Effects of divalent metal cations, EDTA and DTT on enzyme activity; conditions: pH 7.5, Tris-HCl buffer (100 mM); DTT 10 mM
Protocol: (§1) The enzymatic assays were carried out in duplicate at 37° C. for 10 minutes in a reaction mixture (10 μL) containing the donor substrate (1.5 mM, UDP-GalNAc for MBP-Δ15CjCgtA-His6 and UDP-Gal for MBP-CjCgtBΔ30-His6), an acceptor substrate (1 mM, GM3βNHCbz for MBP-Δ15CjCgtA-His6 and GM2βNHCbz for MBP-CjCgtBΔ30-His6), Tris-HCl buffer (100 mM, pH 7.5), a metal cation (10 mM, MgCl2 for MBP-Δ15CjCgtA-His6 and MnCl2 for MBP-CjCgtBΔ30-His6), and the enzyme (0.32 μM for MBP-Δ15CjCgtA-His6 and 4 μM for MBP-CjCgtBΔ30-His6). The reactions were stopped by adding 10 μL of ice-cold methanol followed by incubation of the mixture on ice for 20 minutes and centrifugation at 16200 g for 5 minutes. The supernatant (about 20 μL) was transferred into another tube containing ddH2O (40 μL) and the resulting mixture was analyzed by liquid chromatography-mass spectrometry (LC-MS) (SHIMADZU LCMS-2020 system with electrospray ionization) for confirming the product and ultra-high-performance liquid chromatography (UHPLC) (monitored at 215 nm on an Agilent Infinity 1290 II HPLC system equipped with 1260 Infinity II Diode Array Detector WR) for reaction yield determination. The column used for the UHPLC analysis was Dionex™ CarboPac™ PA-100 (1.8 μm particle, 4×250 mm, Thermo Scientific, CA) for both glycosyltransferases. A gradient flow (100% water to 70% water/30% 1 M NaCl in 16 min) was used for analyzing the reactions catalyzed by MBP-Δ15CjCgtA-His6 and a different gradient flow (100% water to 75% water/[…] in 16 min) was used for analyzing MBP-CjCgtBΔ30-His6-catalyzed reactions. The flow rate was 0.75 mL min^−1.
(§2) The effect of various metal ions, the chelating reagent EDTA, and the reducing reagent DTT on the enzyme activity of MBP-Δ15CjCgtA-His6 and MBP-CjCgtBΔ30-His6 were examined at pH 7.5 in a Tris-HCl buffer (100 mM). Reactions without metal ions were used as controls.

MBP-CjCgtBΔ30-His6 [2] = assay: as above; conditions: pH 7.5, Tris-HCl buffer (100 mM); DTT 10 mM
Protocol: as §1, §2

MBP-CjCgtBΔ30-His6 [3] = assay: Effects of detergents on MBP-CjCgtBΔ30-His6 with glycosphingosine acceptor substrates; conditions: HRMS, sodium cholate 8-10 mM, Triton X-100 10 mM
Protocol: (§3) Glycosphingosines are much weaker acceptor substrates than the corresponding glycans for both CjCgtA and CjCgtB. This property made it prohibitive for synthesizing GM2βSph and GM1βSph in large-scales using the OPME strategy. […] The effects of these detergents in influencing the activities of both MBP-Δ15CjCgtA-His6 and MBP-CjCgtBΔ30-His6 in using glycosphingosine acceptor substrates and the reactions were analyzed by high-resolution mass spectrometry (HRMS).

MBP-Δ15CjCgtA-His6 [4] = assay: Effects of detergents on MBP-Δ15CjCgtA-His6-catalyzed OPME formation of GM2βSph; conditions: glycosphingosine acceptor, HRMS; sodium cholate 8-10 mM; Triton X-100 10 mM
Protocol: Assays were carried out at 30° C. for 12 hours in a total volume of 10 μL in Tris-HCl buffer (100 mM, pH 7.5) containing a GM3βSph (10 mM), GalNAc (15 mM), ATP (15 mM), UTP (15 mM), MgCl2 (20 mM), BLNahK (2 μg), PmGlmU (2 μg), MBP-Δ15CjCgtA-His6 (3 μg), PmPpA (1 μg), and various concentrations (0, 1, 2, 4, 5, 8, 10, 15, 18 mM) of sodium cholate or Triton X-100 (1, 5, 10, 15 mM). Reactions were quenched by addition of 10 μL of pre-chilled ethanol and the mixtures were incubated at 0° C. for 30 min, centrifuged, and the supernatant were analyzed by high resolution mass spectrometry (HRMS).
as §3

O[C@H](CS)[C@H](O)CS (racemic) [dithiothreitol] was tested, and the “effect on the enzyme activity of MBP-Δ15CjCgtA-His6” value (shortened to “effect … of MBP-Δ15CjCgtA-His6”) (MBP-Δ15CjCgtA-His6 [1]) was “deactivated” and the “effect on the enzyme activity of MBP-CjCgtBΔ30-His6” value (from here on “effect … of MBP-CjCgtBΔ30-His6”) (MBP-CjCgtBΔ30-His6 [2]) was “improved the activity”.
For [Ca+2] [Ca^2+], the “effect … of MBP-Δ15CjCgtA-His6” value (MBP-Δ15CjCgtA-His6 [1]) was “suitable” and the “effect … of MBP-CjCgtBΔ30-His6” value (MBP-CjCgtBΔ30-His6 [2]) was “not”.
With [Mg+2] [Mg^2+] the “effect … of MBP-Δ15CjCgtA-His6” value (MBP-Δ15CjCgtA-His6 [1]) was “equally effective” and the “effect … of MBP-CjCgtBΔ30-His6” value (MBP-CjCgtBΔ30-His6 [2]) was “less effective”.
In the case of [Mn+2] [Mn^2+], the “effect … of MBP-CjCgtBΔ30-His6” value (MBP-CjCgtBΔ30-His6 [2]) is reported as “preferred cation”.
C[C@H](CCC(=O)[O-])[C@H]1CC[C@H]2[C@@H]3[C@H](O)C[C@@H]4C[C@H](O)CC[C@]4(C)[C@H]3C[C@H](O)[C@]12C.[Na+] [sodium cholate] was tested, and the “effect of detergent on reaction yield / enzyme activity” value (MBP-CjCgtBΔ30-His6 [3]) was “greatly enhanced” and the “effect of detergent on reaction yield / enzyme activity” value (MBP-Δ15CjCgtA-His6 [4]) was “greatly enhanced”.
In the case of Triton X-100, the “effect of detergent on reaction yield / enzyme activity” value (MBP-CjCgtBΔ30-His6 [3]) is reported as “improved” and the “effect of detergent on reaction yield / enzyme activity” value (MBP-Δ15CjCgtA-His6 [4]) is reported as “improved”.
